Molecules are shown by their SMILES.

The test system of the assay is T1, GLL (purified laccase from Gymnopus luxurians).
T1 construct: native extracellular enzyme purified from fermentation broth; monomer, 64 kDa (SDS-PAGE and gel filtration); N-terminus AIGPVTDLHI; gene not cloned; N-terminus very unlike hypothetical G. luxurians laccases KIK69235.1, KIK58304.1, KIK56882.1
The experiment in a line: spectrophotometric oxidation at […] nm, Lineweaver-Burk plot. The settings on record: pH 2.2 (50 mM citric acid-Na2HPO4), 37 °C; ABTS 12.5-800 μM; free enzyme. It counts as biochemical, Collybiopsis luxurians.

For `CCn1c(=NN=c2sc3cc(S(=O)(=O)O)ccc3n2CC)sc2cc(S(=O)(=O)O)ccc21` [ABTS, 2,2′-azino-bis(3-ethylbenzothiazoline-6-sulfonic acid)], the Km came to 539 µM.

The values are drawn from article PMC8369832, “Purification and Characterization of a Thermo- and pH-Stable Laccase From the Litter-Decomposing Fungus Gymnopus luxurians and Laccase Mediator Systems for Dye Decolorization” (Frontiers in Microbiology, 2021).
